Common to all, as to experiment: Whole-cell patch-clamp of SK4 channel mutants
(Patch clamp records ionic current or voltage across a cell membrane.)

For test [1], the system named is SK4 channel mutants. It is filed as cell-based, human. The conditions noted are these: 20 μM. On the procedure:
(§1) Constructs: For CHO cell transfection, the following were cloned: human SK1, rat SK2, human SK3, and rat calmodulin into the pcDNA3 vector, human SK4 into pEGFP-C1 vector, and PIP4,5-kinase into an IRES-dsRed plasmid. The mutations were introduced using the PCR-based QuikChange™ site-directed mutagenesis (Stratagene®) and were verified by full sequencing of the entire plasmid vector.
(§2) Whole-cell patch-clamp recording: Voltage-clamp recordings were performed using the whole-cell configuration of the patch-clamp technique. Signals were amplified using an […] patch-clamp amplifier (Molecular Devices), sampled at 5 kHz and filtered at 2.4 kHz via a four pole Bessel low pass filter. Data were acquired using pClamp™ 10.5 software in conjunction with an Axon™ DigiData® 1440A interface (Molecular Devices). The patch pipettes were pulled from borosilicate glass (Harvard Apparatus) with a resistance of 3-5 megaohms (MΩ). The intracellular pipette solution contained 130 mM KCl, 5 mM EGTA, 10 mM HEPES, pH 7.3 (adjusted with KOH), and CaCl2 calculated for a final concentration of 1 μM free-Ca^2+, by MAXCHELATOR (WEBMAXC STANDARD) software, with sucrose added to adjust osmolarity to 290 mosM. The external solution (310 mosM) contained 140 mM NaCl, 4 mM KCl, 1.8 mM CaCl2, 1.2 mM MgCl2, 11 mM glucose, and 5.5 mM HEPES adjusted with NaOH to pH 7.3. CHO cells were held at −90 millivolt (mV) and SK4 K^+ currents were activated using a voltage ramp protocol from −100 mV to +60 mV for 150 milliseconds. Electrophysiological data analysis was performed using the Clampfit program (pClamp™ 10.5; Molecular Devices).
(§3) To examine ex-vivo the interactions between BA6b9 and the simulated residues seen in FIG. 5B, residues that are in atomic proximity and are expected to interact with BA6b9 were mutated. Such mutated residues were, for example, R191 and H192 of linker S4-S5, M72 and M76 of the CaM linker as well as L19, E22, Y179, S181, A184, Q187 and R189, which are more distant from BA6b9.

The target in test [2] is T1, SK4 channel mutants (Homo sapiens, UniProt O15554, H192A).
T1 construct: expressed in transfected cells; host or cells: CHO cells
The test is classed as cell-based. The conditions noted are these: read-out: inhibition of SK4 mutant H192A current. On the procedure:
as §1, §2, §3

For test [3], the target named is T2, SK4 channel mutants (Homo sapiens, UniProt O15554, R352Q).
T2 construct: expressed in transfected cells; host or cells: CHO cells
The test is classed as cell-based. As to conditions: read-out: inhibition of SK4 mutant R352Q current. On the procedure: as §1, §2, §3

Test [4] has as its target T3, SK4 channel mutants (Homo sapiens, UniProt O15554, R191A).
T3 construct: expressed in transfected cells; host or cells: CHO cells
It is filed as cell-based. The conditions noted are these: read-out: inhibition of SK4 mutant R191A current. On the procedure:
as §1, §2, §3

For test [5], the target named is T4, SK4 channel mutants (Homo sapiens, UniProt O15554, E22A).
T4 construct: expressed in transfected cells; host or cells: CHO cells
It is filed as cell-based. The conditions noted are these: read-out: inhibition of SK4 mutant E22A current. On the procedure:
as §1, §2, §3

Test [6] deals with T5, SK4 channel mutants (Homo sapiens, UniProt O15554, L19W).
T5 construct: expressed in transfected cells; host or cells: CHO cells
It is filed as cell-based. As to conditions: read-out: inhibition of SK4 mutant L19W current. The protocol: as §1, §2, §3

As to `CCCCCCCn1c(=O)oc2ccccc21` [BA6b9, 3-heptylbenzo[d]oxazol-2(3H)-one], the “sensitivity of mutants R352Q, R191A, H192A to inhibition compared to WT SK4” value in the test on SK4 channel mutants [1] is recorded as “significantly less sensitive”. Also, the inhibition (usually the relative decrease from the control value, in per cent) at 20 µM on SK4 channel mutants [2] turned out to be 16%; on SK4 channel mutants [3], 31%; at SK4 channel mutants [4], 30%; at SK4 channel mutants [5] it was 56%; on SK4 channel mutants [6] it was 46%.
